Parameters: species or system dog (beagle)
Settings: dog, in vivo, sc
Protocol: The in vivo release profiles of granisetron and buprenorphine after subcutaneous injection of Formulations 7A and 7B (Example 7) in dog (beagle) was evaluated using the doses set out in Table 13. The animals were dosed on Days 1 and 8 with the respective formulation.
A validated bioanalytical method was used for the determination of GRN in dog plasma. The analytical method employed liquid chromatography with tandem mass spectrometric detection. The lower limit of quantification of the analytical method was 0.05 ng/mL. The calibration curve ranged from 0.05 to 50.0 ng/mL. Samples above the upper limit of quantitation were diluted into range using control beagle K2-EDTA plasma.

- dose linearity with respect to exposure (AUC): dose linearity was indicated
Compound: CN1[C@@H]2CCC[C@H]1C[C@@H](NC(=O)c1nn(C)c3ccccc13)C2 [granisetron]

From patent publication US20180256496A1, “CONTROLLED-RELEASE FORMULATIONS” (Camurus AB, priority 2015, published 2018)
